Data reported in PubChem BioAssay (NCI).
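Each compound was tested at five concentrations against cells in 96-well plates for 48 hours. GI50 marks 50% less growth. Definition used: TGI = concentration required for complete inhibition of growth.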

What was measured:
Assay in all cases: growth of human tumour cells (NCI), 48 h
M14 melanoma = tested on: M14 melanoma
MALME-3M melanoma = tested on: MALME-3M melanoma
NCI-H23 lung = tested on: NCI-H23 lung
DMS 114 small cell lung = tested on: DMS 114 small cell lung
NCI-H226 lung = tested on: NCI-H226 lung
SN12C renal = tested on: SN12C renal
SF-539 CNS = tested on: SF-539 CNS
TK-10 renal = tested on: TK-10 renal
SNB-19 CNS = tested on: SNB-19 CNS
MDA-N = tested on: MDA-N

| Structure (SMILES) | TGI (M14 melanoma) [µM] | TGI (MALME-3M melanoma) [µM] | TGI (NCI-H23 lung) [µM] | TGI (DMS 114 small cell lung) [µM] | TGI (NCI-H226 lung) [µM] | TGI (SN12C renal) [µM] | TGI (SF-539 CNS) [µM] | TGI (TK-10 renal) [µM] | TGI (SNB-19 CNS) [µM] | GI50 (MALME-3M melanoma) [µM] | GI50 (DMS 114 small cell lung) [µM] | TGI (MDA-N) [µM] |
| --- | --- | --- | --- | --- | --- | --- | --- | --- | --- | --- | --- | --- |
| COC(=O)[C@@]12OC[C@]34C([C@@H](O)C1O)[C@@]1(C)CC(=O)C(O)=C(C)C1C[C@H]3OC(=O)[C@H](OC(=O)/C=C(/c1ccccc1)C(F)(F)F)[C@H]42 (some centres undefined) | 8.48 | 5.71 | 6.73 | 17 | 11.7 | > 25 | 3.75 | > 25 | 14.2 |  |  |  |
| C/C(=N\NC(=O)c1cccnc1)c1cccc(/C(C)=N/NC(=O)c2cccnc2)n1.CC(=O)[O-].CC(=O)[O-].[Zn+2] | > 47.2 | > 79.9 | > 67 | 20.1 | 27.2 | > 100 | 6.55 | > 100 | > 100 | 19.3 | 0.949 |  |
| CO[C@H]1C[C@H](n2cc(C)c(=O)[nH]c2=O)O[C@@H]1CO | > 100 | > 100 | > 100 |  | > 100 | > 100 | > 100 | > 100 | > 100 |  |  | > 100 |
| COc1cc(/C=C2\N=C(C)N(n3c(-c4ccccc4)nc4ccccc4c3=O)C2=O)cc(OC)c1OC | > 100 | > 100 | > 100 |  | > 100 | > 100 | > 100 | > 100 | > 100 |  |  | > 100 |
| COc1ccc(S(=O)(=O)Nc2ccc(-c3csc(N4C(=O)/C(=C/c5ccccc5)N=C4c4ccccc4)n3)cc2)cc1Cl | 71.9 | > 100 | 54.8 |  | > 100 | > 100 | > 100 | > 100 | > 100 |  |  | > 100 |
| COc1ccc(/C(Cl)=C(\C=O)c2ccccc2)cc1OC | > 100 | > 100 | > 100 | > 100 | 82.2 | > 100 | > 100 | > 100 | > 100 |  |  |  |
| COc1ccc(N2C(N)=C(C#N)C(C#N)(C#N)C2c2cccc([N+](=O)[O-])c2)cc1 (centres undefined) | 35.6 | 16 | 30.8 |  | 35.4 | 30.8 | 28.9 | 30.9 | 32.5 |  |  | 31.5 |
| CN(C)CCCNc1cnc2cc3ccccc3cc2n1 | 50.5 | 44.5 | > 100 |  | 40.6 | > 100 | 68.8 | 78.2 | > 100 |  |  | > 100 |
| NNC(=O)CCC(NS(=O)(=O)c1ccc(Cl)cc1)C(=O)NN (centres undefined) | > 100 | > 100 | > 100 |  | > 100 | > 100 | > 100 | > 100 | > 100 |  |  | > 100 |
| C=CC[N+](CCO)(CCO)CCCCCCCCCCCCCCCCCC |  | 31.1 | 44.9 | 18.4 | 28.7 | 24 | 13.1 |  | 35.3 |  |  |  |
| CCOC(=O)c1cn(CC)c2cc3c(cc2c1=O)CCS3(=O)=O | > 100 | > 100 | > 100 |  | > 100 | > 100 | > 100 | > 100 | > 100 |  |  | > 100 |
| O=C(Cc1ccccc1)N=Nc1c(O)[nH]c2ccccc12 | > 100 | > 100 | > 100 |  | > 100 | > 100 | > 100 | > 100 | > 100 |  |  | > 100 |
| O=C(O)CN(CC(=O)O)Cc1ccn(-c2cccc(-n3ccc(CN(CC(=O)O)CC(=O)O)n3)n2)n1 | > 100 | > 100 | > 100 |  | > 100 | > 100 | > 100 | > 100 | > 100 |  |  | > 100 |
| O=c1oc2c/c(=C\c3ccccc3)c(=O)c3cccc1c3-2 | 48.6 | 52.7 | > 100 |  | 75.3 | > 100 | 67.1 | > 100 | 67.9 |  |  | 46.1 |
| O=C(NN1C(=O)CSC1c1ccco1)c1ccncc1 (centres undefined) | > 100 | > 100 | > 100 |  | > 100 | > 100 | > 100 | > 100 | > 100 |  |  | > 100 |
| CCCCCCCC(=O)OCC(C[As](=O)(O)O)OC(=O)CCCCCCC (centres undefined) | 28.5 | 28.5 | 28.7 | 30.6 | 37.5 | 27.9 | 27.1 |  | 28.2 |  |  |  |
| CNC(=O)c1ccccc1[S+]1c2cccc3cccc(c23)C(=O)N1C (centres undefined) | > 100 | > 100 | > 100 |  | > 100 | > 100 | > 100 | > 100 | > 100 |  |  | > 100 |
| C[C@H](N)C(=O)N[C@@H]1[C@H]2C(=C(O)C[C@@H](O)[C@@H]2O)C(=O)O[C@@H]1C |  | > 100 | > 100 | > 100 | > 100 | > 100 | > 100 |  | > 100 |  |  |  |

| Structure (SMILES) | TGI (M14 melanoma) [µM] | TGI (MALME-3M melanoma) [µM] | TGI (NCI-H23 lung) [µM] | TGI (DMS 114 small cell lung) [µM] | TGI (NCI-H226 lung) [µM] | TGI (SN12C renal) [µM] | TGI (SF-539 CNS) [µM] | TGI (TK-10 renal) [µM] | TGI (SNB-19 CNS) [µM] | GI50 (MALME-3M melanoma) [µM] | GI50 (DMS 114 small cell lung) [µM] | TGI (MDA-N) [µM] |
| --- | --- | --- | --- | --- | --- | --- | --- | --- | --- | --- | --- | --- |
| CC(C)=CCCC1(Sc2ccccc2)C(=O)OCC1C=C(C)C (centres undefined) | 52.1 | 40.7 | > 100 |  | 73.7 | 46.1 | 47.9 | > 100 | > 100 |  |  | 66.1 |
| O=[N+]([O-])c1ccc2nc(/C=C(\O)c3ccccc3)c(/C=C(\O)c3ccccc3)nc2c1 | > 67.3 | > 100 | > 60.4 |  | > 100 | > 100 | 22.8 | 63 | > 100 |  |  | > 100 |
| NC(=O)C[C@H](NC(=O)C1(NC(=O)[C@H](Cc2ccc(CP(=O)(O)O)cc2)NC(=O)C(=O)O)CCCCC1)C(=O)NCCCc1cccc2ccccc12 | > 10 | > 10 | > 10 |  | > 10 | > 10 | > 10 | > 10 | > 10 |  |  | > 10 |
| N#CCOc1cccc(C2(N3CC=CCC3)CCCCC2)c1 | > 100 | > 100 | > 100 |  | > 100 | > 100 | > 100 | > 100 | > 100 |  |  | > 100 |
| COP(=O)(OC)c1ccc(NCc2cc(O)ccc2O)cc1 | > 61.1 | 39.1 | > 75.8 |  | > 77.9 | > 70.6 | 46.1 | 53.9 | > 100 |  |  | > 63.2 |
| COC(=O)c1c(O)ccc2c1c1c(n2Cc2ccccc2OC)C(=O)c2ccccc2C1 | > 100 | > 100 | > 100 |  | > 100 | 74.9 | > 100 | > 100 | > 100 |  |  | > 100 |
| COc1ccc(-c2nnc(CCCCCCCCc3nnc(-c4ccc(OC)cc4)n3N)n2N)cc1 | > 100 | > 100 | > 100 |  | > 100 | > 100 | > 100 | > 100 | > 100 |  |  | > 100 |
| CCCCCC(O)(CCCCC)CCCCCCCCC1=C(O)c2ccccc2C(=O)C1=O | 24.8 | 28.6 | 21.9 |  | 36.4 | 23.5 | 27.5 | > 75.5 | 24.9 |  |  | 31.3 |
| Cc1nc2c(Cl)cc(Cl)cc2c(Cl)c1CCCl | > 100 | > 100 | > 100 |  | > 100 | > 100 | > 100 | > 100 | > 100 |  |  | > 100 |
| COc1cc(C2c3cc4c(cc3OC3(OC)COC(=O)C23)OCO4)cc(OC)c1OC (centres undefined) | 8.43 | > 100 | > 100 |  | 8.16 | > 80.5 | 0.697 | > 100 | > 26.6 |  |  | 0.319 |
| COc1cc(/C=c2/c3ccccc3n3c2cc(-c2ccccc2)[n+]3C)cc(OC)c1OC | > 35.8 | 5.67 | 14.8 |  | 32.8 | 12 | 8.64 | 17.4 | 17.9 |  |  | 34.6 |
| CC1C2CC(CC2N)C1(C)C (centres undefined) | > 100 | > 100 | > 100 |  | > 100 | > 100 | > 100 | > 100 | > 100 |  |  | > 100 |
| CCOC(=O)C1=CC(C)(C(=O)OCC)Nc2c(nc(SC)n(C)c2=O)N1 (centres undefined) | > 10 | > 10 | > 10 |  | > 10 | > 10 | > 10 | > 10 | > 10 |  |  | > 10 |
| COc1ccc(/C=N\NC(=O)Nc2cccc3ccccc23)cc1 | > 100 | > 100 | > 100 |  | 83.7 | > 100 | 33.3 | 43.9 | 36.8 |  |  | > 100 |
| CN(C)CCNC(=O)c1cccc2[nH]c(-c3ccncc3)nc12 | 3.39 | 3.75 | 32.1 |  | > 50.5 | > 76.3 | 6.82 | 16.9 | > 63.2 |  |  | 3.27 |
| COc1ccc(/C=N/n2cnc3c(c2=O)S/C(=C2/SC(=S)N(c4ccc(C)cc4)C2=O)N3c2ccccc2)cc1 | > 100 | 60.3 |  | > 100 | > 100 | > 100 | > 100 | > 100 | 83.5 |  |  |  |
| N/C(=N\N=C\c1cc2c(cc1Cl)OCO2)NO |  | > 100 | > 100 | > 100 | > 93.7 | > 100 | > 95.6 |  | > 45.4 |  |  |  |
